Source: patent EP0052238B1, “A new vincamine derivative, a method for its preparation and pharmaceutical compositions containing it” (MEDEA RESEARCH S.r.l., priority 1980, dated 1982)

Tests used:
[1] = Acute toxicity in mice (LD50, Lichtfield and Wilcoxon); conditions: mouse, in vivo, ip
[2] = system: smooth musculature of the isolated ileum of rabbits, made hypertonic by serotonin; experiment: Myorelaxing effect on isolated ileum made hypertonic by serotonin; conditions: isolated rabbit ileum, relative to vincamine
Description: (§1) The myorelaxing effect of MR 711 and vincamine has been investigated on the smooth musculature of the isolated ileum of rabbits, made hypertonic by sodium ions or serotonin.

mice = experiment: Protective action on the mortality by hypobaric hypoxia; type: in vivo; conditions: intravenous route, 25.6 mg/kg; for Survival time: pressure reduced until 190 mm Hg; for % Variation: survival time versus controls
[3] = system: smooth musculature of the isolated ileum of rabbits, made hypertonic by sodium ions; experiment: Myorelaxing effect on isolated ileum made hypertonic by sodium ions; conditions: isolated rabbit ileum, relative to vincamine
Description: as §1

| SMILES | LD50 [1] | activity in inhibiting the serotonin induced contractions, higher than the corresponding activity displayed by vincamine [2] | Survival time (mice) | % Variation (mice) | activity in inhibiting the sodium ions induced contractions, higher than the corresponding activity displayed by vincamine [3] |
| --- | --- | --- | --- | --- | --- |
| CCC12C=C(C(=O)OCOC)n3c4c(c5ccccc53)CCN(CCC1)C42 (centres unmarked) [MR 711, 13a-ethyl-2,3,5,6,13a,13b-hexahydro-1 H-indolo[3,2,1-de]pyrido[3,2,1-ij]-[1,5]naphthyridine-12-methoxymethylcarboxylate] | 580 mg/kg | 70% | 262.9 ± 31.4 s | +263% | 46% |
| CC[C@]12CCCN3CCc4c(n(c5ccccc45)[C@@](O)(C(=O)OC)C1)[C@@H]32 [Vincamine] | 195 mg/kg | – | 213.3 ± 37.9 s | +194% | – |
